Assay [1] has as its target T1, Eukaryotic translation initiation factor 2-alpha kinase 3 (Homo sapiens, UniProt Q9NZJ5). As to the kind of experiment: Counterscreen assay for PERK inhibitors: Dose response cell-based high throughput screening assay to measure inhibition of PERK at 6 hours. [Related pubchem assays: 1522, 1416 ]. Type of assay: functional. (In general: Counterscreens check selectivity or assay interference.)

For assay [2], the target named is T1, Eukaryotic translation initiation factor 2-alpha kinase 3. As to the kind of experiment: Dose response cell-based high-throughput screening assay to measure PERK inhibition. [Related pubchem assays: 1416 ]. The assay is classed as functional.
The target in assay [3] is T2, Corticotropin-releasing factor receptor 2/Corticotropin-releasing factor-binding protein (Homo sapiens, UniProt P24387+Q13324).
T2 sequence (Q13324 whole entry): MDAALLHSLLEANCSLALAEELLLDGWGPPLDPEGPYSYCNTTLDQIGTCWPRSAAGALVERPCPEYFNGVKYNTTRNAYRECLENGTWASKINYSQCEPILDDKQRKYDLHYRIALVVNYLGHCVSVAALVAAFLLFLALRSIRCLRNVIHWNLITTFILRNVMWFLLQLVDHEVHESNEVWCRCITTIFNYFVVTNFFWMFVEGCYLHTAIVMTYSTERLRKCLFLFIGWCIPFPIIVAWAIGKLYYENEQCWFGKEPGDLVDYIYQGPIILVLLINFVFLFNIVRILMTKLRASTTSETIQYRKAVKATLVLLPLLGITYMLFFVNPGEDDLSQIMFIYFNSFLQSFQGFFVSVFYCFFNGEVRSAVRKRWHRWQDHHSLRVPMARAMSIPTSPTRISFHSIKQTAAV
T2 sequence (P24387 whole entry): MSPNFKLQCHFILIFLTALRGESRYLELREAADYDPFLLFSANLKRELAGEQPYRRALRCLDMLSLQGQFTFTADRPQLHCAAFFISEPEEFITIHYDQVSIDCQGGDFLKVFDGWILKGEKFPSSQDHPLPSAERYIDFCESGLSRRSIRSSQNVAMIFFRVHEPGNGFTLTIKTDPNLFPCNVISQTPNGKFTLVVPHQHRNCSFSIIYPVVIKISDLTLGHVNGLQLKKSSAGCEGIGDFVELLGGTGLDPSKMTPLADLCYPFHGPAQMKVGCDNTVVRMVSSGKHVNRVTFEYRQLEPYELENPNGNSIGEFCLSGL
Kind of assay: Dose Response confirmation of uHTS hits for small molecule antagonists of the CRF-binding protein and CRF-R2 receptor complex. Type of assay: functional. The note with it: read-out: IC50_Mean.

Assay [4] has as its target T2, Corticotropin-releasing factor receptor 2/Corticotropin-releasing factor-binding protein. Kind of assay: activators of CRF receptor 2 with binding protein – uHTS hits, confirmation (AID 602473). To be noted: read-out: EC50_Mean. Type of assay: functional.
The target of assay [5] is Melanin-concentrating hormone receptor 1 (Homo sapiens, UniProt Q99705). As to the kind of experiment: Late-stage fluorescence-based counterscreen for antagonists of the G-protein coupled receptor 7 (GPR7): cell-based dose response assay to identify antagonists of the melanin-concentrating hormone receptor 1 (MCHR1). [Related pubchem assays (depositor defined):AID1861, AID1880, AID1952, AID2148, AID2251, AID2257, AID485339]. The assay is classed as functional.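 Further: stimulated with 30 nM MCH peptide agonist.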

Assay [6] in a line: cells. Type of assay: functional, cell-based.
Assay [7] deals with INS1. Kind of assay: INS-1E survival protection against cytokine death – cell-based, luminescence, retest, dose response (AID 449756).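 Further: cell death triggered by IL-1 beta plus TNF-alpha plus IFN-gamma mixture; protective hits raise ATP signal compared with cytokine alone wells.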 The assay is classed as functional. To be noted: Rattus norvegicus.
A short description of assay [8]: cells. The assay is classed as functional, cell-based. This is another data set of the same source.
The nature of assay [9]: Luminescence-based counterscreen assay for KLF5 inhibitors: dose response cell-based high throughput screening assay to identify cytotoxic compounds using the IEC-6 intestinal epithelial cell line. [Related pubchem assays: 1700 (Primary screen.), 1834 (Confirmation screen.), 1858 (Summary AID.), 1905 (Counterscreen.)]. The assay is classed as functional.
The target in assay [10] is Wee1-like protein kinase (Homo sapiens, UniProt P30291). Kind of assay: Dose Response Cell-based Assay for Inhibitors of Wee1 Degradation. [Related pubchem assays: 1410, 1321 ]. Type of assay: functional.
Assay [11] addresses G2/mitotic-specific cyclin-B1 (Homo sapiens, UniProt P14635). As to the kind of experiment: Counterscreen assay for inhibitors of Wee1 degradation: dose response cell-based assay to identify inhibitors of cyclin B degradation. [Related pubchem assays: 1410, 1321 ]. The assay is classed as functional.
A short description of assay [12]: viability loss in Vero cells – cytotoxicity control for Vif-APOBEC3G degradation inhibitor project, dose response (AID 1117358). The assay is classed as functional. The note with it: Vero.
Assay [13] concerns the target Potassium voltage-gated channel subfamily KQT member 2 (Rattus norvegicus, UniProt O88943). As to the kind of experiment: Mode of action assay - current amplitude concentration response for derivatives of ZTZ240, a potentiator of KCNQ2 potassium channels. [Related pubchem assays: 2258 (Summary assay for the KCNQ2 potentiators.), 2239 (Primary HTS assay for KCNQ2 potentiators with 305606 compounds tested, and 1644 are found to be active.)]. The assay is classed as functional.

Assay [14] has as its target Metabotropic glutamate receptor 4 (Homo sapiens, UniProt Q14833). Kind of assay: Modulation of the Metabotropic Glutamate Receptor mGluR4: Calcium Assay. [Related pubchem assays: 2180, 2199, 2193, 2179, 2182, 2183, 2191, 2181, 2190, 2188, 2185, 2197 ]. Type of assay: functional.

Calls of active or inactive are those of the source. Bounds are passed on as bounds.

Usually AC50 stands for the midpoint of the concentration-response curve, whichever way the signal moves. By CC50 is commonly meant the concentration at which the toxic effect on the cells reaches its halfway point.

T1 sequence (Q9NZJ5 whole entry): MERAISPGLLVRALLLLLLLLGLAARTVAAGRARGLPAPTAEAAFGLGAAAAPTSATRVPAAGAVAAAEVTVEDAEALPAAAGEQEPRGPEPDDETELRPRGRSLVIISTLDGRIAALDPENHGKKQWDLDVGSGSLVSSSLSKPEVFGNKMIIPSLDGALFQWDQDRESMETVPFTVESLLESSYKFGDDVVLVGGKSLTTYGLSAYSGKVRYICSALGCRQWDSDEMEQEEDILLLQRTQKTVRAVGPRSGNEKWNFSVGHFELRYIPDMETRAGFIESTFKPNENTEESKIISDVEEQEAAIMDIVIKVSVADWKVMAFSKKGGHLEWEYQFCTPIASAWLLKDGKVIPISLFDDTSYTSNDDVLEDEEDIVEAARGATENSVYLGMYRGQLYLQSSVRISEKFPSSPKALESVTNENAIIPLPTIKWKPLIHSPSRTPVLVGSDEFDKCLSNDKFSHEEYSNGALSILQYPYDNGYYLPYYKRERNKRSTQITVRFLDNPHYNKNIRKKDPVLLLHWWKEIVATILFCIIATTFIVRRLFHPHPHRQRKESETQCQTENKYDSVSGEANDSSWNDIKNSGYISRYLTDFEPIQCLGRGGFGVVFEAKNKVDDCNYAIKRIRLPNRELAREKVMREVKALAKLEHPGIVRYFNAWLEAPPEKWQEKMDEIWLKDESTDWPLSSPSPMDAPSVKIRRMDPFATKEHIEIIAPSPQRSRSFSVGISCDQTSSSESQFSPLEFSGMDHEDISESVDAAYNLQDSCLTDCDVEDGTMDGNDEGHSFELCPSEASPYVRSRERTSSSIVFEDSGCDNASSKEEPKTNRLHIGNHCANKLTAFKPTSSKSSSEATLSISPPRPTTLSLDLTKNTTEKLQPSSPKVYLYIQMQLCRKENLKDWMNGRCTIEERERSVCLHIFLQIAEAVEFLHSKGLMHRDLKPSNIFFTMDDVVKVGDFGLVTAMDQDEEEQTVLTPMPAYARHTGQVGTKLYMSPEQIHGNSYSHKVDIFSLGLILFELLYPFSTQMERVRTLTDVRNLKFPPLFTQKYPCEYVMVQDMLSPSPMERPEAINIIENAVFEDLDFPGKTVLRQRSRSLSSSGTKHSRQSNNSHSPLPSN
Chain of G2/mitotic-specific cyclin-B1 (P14635 whole entry): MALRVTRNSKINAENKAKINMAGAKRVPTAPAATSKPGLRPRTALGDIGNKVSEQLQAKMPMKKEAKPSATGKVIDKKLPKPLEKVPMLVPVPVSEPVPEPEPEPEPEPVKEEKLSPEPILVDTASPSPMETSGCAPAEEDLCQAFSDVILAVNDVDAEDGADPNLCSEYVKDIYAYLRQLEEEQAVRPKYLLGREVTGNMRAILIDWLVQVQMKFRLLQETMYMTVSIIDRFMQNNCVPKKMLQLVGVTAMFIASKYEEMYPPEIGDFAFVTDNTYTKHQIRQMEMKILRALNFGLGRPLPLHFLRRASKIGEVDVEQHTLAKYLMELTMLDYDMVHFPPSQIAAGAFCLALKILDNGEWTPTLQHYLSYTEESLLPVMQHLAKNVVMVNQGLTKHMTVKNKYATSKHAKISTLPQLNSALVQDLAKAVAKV
Chain of Potassium voltage-gated channel subfamily KQT member 2 (O88943 whole entry): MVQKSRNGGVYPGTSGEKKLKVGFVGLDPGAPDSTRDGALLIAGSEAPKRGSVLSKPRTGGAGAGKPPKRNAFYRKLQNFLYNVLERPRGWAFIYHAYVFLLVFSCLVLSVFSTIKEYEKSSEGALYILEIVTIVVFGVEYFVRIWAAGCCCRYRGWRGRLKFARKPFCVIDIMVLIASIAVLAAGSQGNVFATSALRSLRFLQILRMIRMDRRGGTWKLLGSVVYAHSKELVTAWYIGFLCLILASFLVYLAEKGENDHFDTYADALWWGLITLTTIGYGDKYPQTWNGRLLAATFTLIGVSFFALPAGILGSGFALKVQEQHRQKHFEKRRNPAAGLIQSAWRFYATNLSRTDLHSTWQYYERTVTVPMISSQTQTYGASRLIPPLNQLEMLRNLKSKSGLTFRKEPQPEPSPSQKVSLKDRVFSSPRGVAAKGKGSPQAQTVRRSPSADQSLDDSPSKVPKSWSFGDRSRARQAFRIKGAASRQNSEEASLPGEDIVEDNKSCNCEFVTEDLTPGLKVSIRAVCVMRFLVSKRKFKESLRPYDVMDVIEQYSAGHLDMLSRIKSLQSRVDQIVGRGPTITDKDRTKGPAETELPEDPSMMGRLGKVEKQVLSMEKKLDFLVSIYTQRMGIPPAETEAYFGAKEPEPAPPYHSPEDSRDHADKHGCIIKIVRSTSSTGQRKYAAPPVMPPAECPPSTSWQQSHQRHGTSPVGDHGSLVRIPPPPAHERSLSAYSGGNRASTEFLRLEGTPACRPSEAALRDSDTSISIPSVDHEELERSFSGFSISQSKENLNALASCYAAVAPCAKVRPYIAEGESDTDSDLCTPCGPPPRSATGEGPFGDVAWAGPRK
Chain of Melanin-concentrating hormone receptor 1 (Q99705 whole entry): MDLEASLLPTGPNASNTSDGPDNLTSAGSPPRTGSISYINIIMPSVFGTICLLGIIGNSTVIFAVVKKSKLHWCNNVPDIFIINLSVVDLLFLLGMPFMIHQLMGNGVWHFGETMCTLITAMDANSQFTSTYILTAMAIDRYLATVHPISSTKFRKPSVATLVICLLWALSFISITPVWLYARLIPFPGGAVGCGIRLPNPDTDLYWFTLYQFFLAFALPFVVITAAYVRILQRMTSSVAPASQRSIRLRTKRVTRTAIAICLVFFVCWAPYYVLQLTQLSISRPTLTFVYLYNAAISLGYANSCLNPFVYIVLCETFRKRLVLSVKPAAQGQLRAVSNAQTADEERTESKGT
Chain of Metabotropic glutamate receptor 4 (Q14833 whole entry): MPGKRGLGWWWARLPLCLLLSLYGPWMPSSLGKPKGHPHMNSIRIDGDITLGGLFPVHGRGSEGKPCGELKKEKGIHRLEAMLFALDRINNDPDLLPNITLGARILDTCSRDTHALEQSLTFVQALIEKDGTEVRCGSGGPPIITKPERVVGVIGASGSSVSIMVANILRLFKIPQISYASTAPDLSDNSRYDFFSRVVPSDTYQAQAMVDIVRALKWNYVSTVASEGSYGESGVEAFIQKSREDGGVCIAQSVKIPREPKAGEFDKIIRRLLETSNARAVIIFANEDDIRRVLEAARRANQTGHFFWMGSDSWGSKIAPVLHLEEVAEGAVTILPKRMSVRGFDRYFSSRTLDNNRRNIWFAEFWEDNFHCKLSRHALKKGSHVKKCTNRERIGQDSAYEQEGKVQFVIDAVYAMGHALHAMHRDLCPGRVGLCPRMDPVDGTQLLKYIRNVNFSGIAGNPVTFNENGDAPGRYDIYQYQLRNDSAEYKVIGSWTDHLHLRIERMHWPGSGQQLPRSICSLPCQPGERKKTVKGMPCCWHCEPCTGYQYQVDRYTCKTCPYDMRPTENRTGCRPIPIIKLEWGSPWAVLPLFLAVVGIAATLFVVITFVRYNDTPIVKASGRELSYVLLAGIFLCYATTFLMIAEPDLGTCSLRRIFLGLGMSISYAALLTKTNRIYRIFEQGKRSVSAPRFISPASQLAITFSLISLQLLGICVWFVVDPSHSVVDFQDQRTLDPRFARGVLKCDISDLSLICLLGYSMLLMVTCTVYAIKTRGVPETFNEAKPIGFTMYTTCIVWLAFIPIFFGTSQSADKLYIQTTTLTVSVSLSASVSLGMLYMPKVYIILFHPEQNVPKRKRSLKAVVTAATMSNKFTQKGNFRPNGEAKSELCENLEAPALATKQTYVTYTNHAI
Chain of Wee1-like protein kinase (P30291 whole entry): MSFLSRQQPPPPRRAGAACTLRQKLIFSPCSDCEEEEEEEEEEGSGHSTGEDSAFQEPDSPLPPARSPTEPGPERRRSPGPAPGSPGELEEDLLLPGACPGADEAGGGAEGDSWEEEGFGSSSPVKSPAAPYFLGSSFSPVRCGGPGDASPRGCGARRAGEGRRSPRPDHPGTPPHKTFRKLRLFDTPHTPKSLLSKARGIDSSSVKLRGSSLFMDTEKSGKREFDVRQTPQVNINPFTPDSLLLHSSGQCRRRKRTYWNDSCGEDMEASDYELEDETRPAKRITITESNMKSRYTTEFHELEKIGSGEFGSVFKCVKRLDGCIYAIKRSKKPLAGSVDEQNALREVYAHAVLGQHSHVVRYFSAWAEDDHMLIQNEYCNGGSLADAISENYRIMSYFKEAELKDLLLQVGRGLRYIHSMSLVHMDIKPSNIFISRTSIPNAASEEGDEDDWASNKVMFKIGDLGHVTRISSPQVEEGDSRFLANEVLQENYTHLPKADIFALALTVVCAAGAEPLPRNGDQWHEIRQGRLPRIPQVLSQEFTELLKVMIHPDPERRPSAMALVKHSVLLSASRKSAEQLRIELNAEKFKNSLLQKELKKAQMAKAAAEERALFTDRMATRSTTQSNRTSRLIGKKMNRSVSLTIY

`C=CCN(c1ccccc1)S(=O)(=O)c1cccc(C(=O)O)c1`: the EC50 was > 55.7 µM (not active) in assay [1], > 55.7 µM (not active) in assay [2] and > 53 µM (inactive) in assay [4]. Besides, the IC50 in [3] is > 47.1 µM (inactive).

For the compound `CCOC(=O)c1ccc(-n2ncc(Cl)c(Oc3ccc(OC)cc3)c2=O)cc1`, the IC50 in assay [5] was 4 µM (active).

Consider `O=C(N/N=C/c1cc(Br)ccc1OC(=O)c1ccc(Br)cc1)c1ccncc1`, for which the figures for the EC50 in [6] and in assay [8] were 121 µM (active) and 20 µM (active), respectively. In [7], the AC50 was 2.29 µM (active). In addition, the IC50 in assay [9] is 5.99 µM (active).

For `COc1ccc(/C=N/NC(=O)c2ccc3ccccc3c2)cc1OS(=O)(=O)c1ccc(NC(C)=O)cc1`, the EC50 in [10] and in assay [11] was > 49.7 µM (not active) throughout. In assay [12], the CC50 is > 40 µM (active).

As to `O=C(Nc1ccc(Cl)nc1)c1ccc(F)c(F)c1`, in assay [13], the EC50 was 14.4 µM (active).

Take `COc1nc(NC(=O)c2ccccn2)ccc1Cl`: in [14], the EC50 is 6.4 µM (active).
